The values that follow come from patent US20240368133A1, “Compounds for the Treatment of Pain, in Particular, Neuropathic Pain, and/or Other Diseases or Disorders that are Associated with AT2R and/or AT2R Mediated Signaling” (Confo Therapeutics N.V., priority 2021, published 2024).

In one test the target is human AT2R fused to Cb23 (Homo sapiens, UniProt P50052). The test is described as follows: Radioligand binding assay, displacement of 125I-[Sar1, Ile8]-Angiotensin II, hAT2R Cb23. Conditions: displacement of 125I-[Sar1, Ile8]-Angiotensin II, human AT2R fused to Cb23, HEK-293 cell membrane preparations; read-out: Binding affinity on hAT2R_Cb23 IC50. In a few lines: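 Membranes from HEK-293 cells expressing human AT2R fused to Cb23 were incubated with 0.05 nM 125I-[Sar1, Ile8]-Angiotensin II in 100 μL buffer (50 mM Tris, 5 mM MgCl2, 1 mM EDTA, 0.1% BSA, pH 7.4) for one hour at 25° C. Ligands were tested as eight-point dose-response curves in duplicate, with C21 and Angiotensin II as references.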
Chain of human AT2R fused to Cb23 (P50052 whole entry, looked up, the tested form may be a part): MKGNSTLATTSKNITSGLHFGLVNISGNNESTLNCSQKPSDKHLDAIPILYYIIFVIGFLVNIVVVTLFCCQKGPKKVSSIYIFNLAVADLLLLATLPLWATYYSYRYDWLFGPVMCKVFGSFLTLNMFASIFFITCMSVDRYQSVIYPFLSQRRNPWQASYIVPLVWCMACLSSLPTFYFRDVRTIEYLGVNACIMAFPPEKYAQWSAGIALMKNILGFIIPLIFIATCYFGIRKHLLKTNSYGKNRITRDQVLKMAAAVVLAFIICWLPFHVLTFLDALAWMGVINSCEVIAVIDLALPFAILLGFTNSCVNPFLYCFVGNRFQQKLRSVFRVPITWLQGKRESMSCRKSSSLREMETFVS

For another test, the target named is human AT1R (Homo sapiens (Human), UniProt P30556). Put plainly: Counterscreen radioligand binding assay, displacement of 125I-[Sar1, Ile8]-Angiotensin II, hAT1R WT. Conditions: for inhibition at 1 µM / inhibition at 10 µM: 125I-[Sar1, Ile8]-Ang II, semi-quantitative score; for inhibition at 1 µM: compound at 1 μM, read-out: % Displaced radioligand at 1 μM; for inhibition at 10 µM: compound at 10 μM, read-out: % Displaced radioligand at 10 μM; for IC50: HEK-293 cell membranes, read-out: Binding affinity On hAT1R IC50. In a few lines:
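Membranes from HEK-293 cells expressing human AT1R were incubated for one hour at 25° C, pH 7.4, with 0.05 nM radiolabelled [Sar1, Ile8]-Ang II and test ligand. Bound radioactivity was collected on PEI-soaked filters, with 10 μM unlabelled [Sar1]-Ang II defining non-specific binding. Results are percent displacement at 1 μM and […], or IC50 from eight-point duplicate curves.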
On the technique in general: Counterscreens check selectivity or assay interference.

Chain of human AT1R (P30556 whole entry): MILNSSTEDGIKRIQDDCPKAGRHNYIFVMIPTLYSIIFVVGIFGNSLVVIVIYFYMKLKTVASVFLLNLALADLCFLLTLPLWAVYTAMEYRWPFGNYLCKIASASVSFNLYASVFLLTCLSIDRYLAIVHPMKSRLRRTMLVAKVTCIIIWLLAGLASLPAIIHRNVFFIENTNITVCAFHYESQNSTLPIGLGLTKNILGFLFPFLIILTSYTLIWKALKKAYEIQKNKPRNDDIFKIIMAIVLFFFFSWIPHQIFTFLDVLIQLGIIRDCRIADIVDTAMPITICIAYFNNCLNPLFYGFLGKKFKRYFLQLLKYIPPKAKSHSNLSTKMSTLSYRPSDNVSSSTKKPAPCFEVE

Consider `CCS(=O)(=O)NC(=O)c1ccc(OCC(C)C)cc1N1CCN(Cc2nc3ccccc3s2)CC1` [Compound A-43, 2-[4-(1,3-benzothiazol-2-ylmethyl)piperazin-1-yl]-N-ethylsulfonyl-4-isobutoxy-benzamide], for which, on human AT2R fused to Cb23, the IC50 (commonly the midpoint of a concentration-inhibition curve) came out at 4.38 µM. Moreover, at human AT1R, the inhibition at 1 µM was less than 30% and the inhibition at 10 µM lay within 30 to 50%.
For `CCNc1ccc(C(=O)NS(=O)(=O)CC)c(N2CCN(Cc3nc4ccccc4s3)CC2)c1` [Compound A-44, 2-[4-(1,3-benzo-thiazol-2-ylmethyl)-piperazin-1-yl]-4-(ethylamino)-N-ethylsulfonyl-benz-amide], the IC50 at human AT2R fused to Cb23 worked out at 7.18 µM. On human AT1R, the inhibition at 1 µM is less than 30%, the inhibition at 10 µM was less than 30% and the IC50 amounted to 34.9 µM.
Turning to `CCc1ccc(-c2nn[nH]n2)c(N2CCN(Cc3nc4ccccc4s3)CC2)c1` [Compound A-45, 2-[[4-[5-ethyl-2-(2H-tetrazol-5-yl)-phenyl]piperazin-1-yl]methyl]-1,3-benzothiazole], at human AT2R fused to Cb23, the IC50 stood at 2.54 µM. In addition, at human AT1R, the inhibition at 1 µM is less than 30%, the inhibition at 10 µM is less than 30% and the IC50 stood at 30 µM.
Regarding `CC(C)c1ccc(-c2nn[nH]n2)c(N2CCN(Cc3nc4ccccc4s3)CC2)c1` [Compound A-46], on human AT2R fused to Cb23, the IC50 was 1.79 µM. For the same compound, at human AT1R, the inhibition at 1 µM was less than 30% and the inhibition at 10 µM was less than 30%.
In the case of `c1ccc2sc(CN3CCN(c4cc(C5CC5)ccc4-c4nn[nH]n4)CC3)nc2c1` [Compound A-47, 2-[[4-[5-cycloprop-yl-2-(2H-tetrazol-5-yl)phenyl]piperazin-1-yl]methyl]-1,3-benzothiazole], the IC50 at human AT2R fused to Cb23 was 1.07 µM. Moreover, at human AT1R, the inhibition at 1 µM was less than 30% and the inhibition at 10 µM was less than 30%.
Regarding `CC(C)Cc1ccc(-c2nn[nH]n2)c(N2CCN(c3nc4ccccc4s3)CC2)c1` [Compound A-49, 2-[4-[5-isobutyl-2-(2H-tetrazol-5-yl)-phenyl]piperazin-1-yl]-1,3-benzo-thiazole], the IC50 on human AT2R fused to Cb23 was determined as 2.34 µM. In addition, on human AT1R, the inhibition at 1 µM was less than 30%, the inhibition at 10 µM was in the range of 30 to 50% and the IC50 stood at 20.3 µM.
For the compound `CC(C)Oc1ccc(-c2nn[nH]n2)c(CN2CCN(c3nc4ccccc4s3)CC2)c1` [Compound A-50, 2-[4-[[5-isoprop-oxy-2-(2H-tetrazol-5-yl)phenyl]meth-yl]piperazin-1-yl]-1,3-benzothiazole], the IC50 at human AT2R fused to Cb23 turned out to be 10.5 µM. Further, on human AT1R, the inhibition at 1 µM is less than 30% and the half-maximal inhibitory concentration (IC50) was 28.8 µM.
For the compound `c1ccc2sc(CN3CCN(c4cc(OC5CC5)ccc4-c4nn[nH]n4)CC3)nc2c1` [Compound A-52, 2-[[4-[5-(cyclopropoxy)-2-(2H-tetrazol-5-yl)phenyl]piperazin-1-yl]methyl]-1,3-benzothiazole], at human AT2R fused to Cb23, the IC50 turned out to be 4.42 µM. In addition, on human AT1R, the inhibition at 1 µM was less than 30% and the inhibition at 10 µM was less than 30%.
Turning to `CC(C)COc1ccc(-c2nn[nH]n2)c(N2CCN(Cc3nc4ccccc4s3)CC2)c1` [Compound A-53, 2-[[4-[5-isobutoxy-2-(2H-tetrazol-5-yl)phenyl]piperazin-1-yl]methyl]-1,3-benzothiazole], the IC50 at human AT2R fused to Cb23 was 7.6 µM. For the same compound, on human AT1R, the inhibition at 1 µM was less than 30%, the inhibition at 10 µM was less than 30% and the IC50 was found to be 45.6 µM.
As for `c1ccc2sc(CN3CCN(c4cc(OCC5CC5)ccc4-c4nn[nH]n4)CC3)nc2c1` [Compound A-54, 2-[[4-[5-(cyclo-propylmethoxy)-2-(2H-tetrazol-5-yl)-phenyl]piperazin-1-yl]methyl]-1,3-benzothiazole], the IC50 at human AT2R fused to Cb23 was found to be 2.07 µM. At human AT1R, the inhibition at 1 µM is less than 30%, the inhibition at 10 µM was less than 30% and the IC50 came to 31 µM.
Take `FC(F)COc1ccc(-c2nn[nH]n2)c(N2CCN(Cc3nc4ccccc4s3)CC2)c1` [Compound A-55, 2-[[4-[5-(2,2-difluoroethoxy)-2-(2H-tetrazol-5-yl)-phenyl]piperazin-1-yl]methyl]-1,3-benzothiazole]: the IC50 on human AT2R fused to Cb23 was 2.27 µM. Besides, at human AT1R, the inhibition at 1 µM was less than 30%, the inhibition at 10 µM was less than 30% and the IC50 came out at 39.7 µM.
`c1ccc2sc(CN3CCN(c4cc(OC5CCCC5)ccc4-c4nn[nH]n4)CC3)nc2c1` [Compound A-57, 2-[[4-[5-(cyclo-pentoxy)-2-(2H-tetrazol-5-yl)-phenyl]piperazin-1-yl]methyl]-1,3-benzothiazole]: the IC50 at human AT2R fused to Cb23 stood at 1.9 µM. In addition, at human AT1R, the inhibition at 1 µM is less than 30%, the inhibition at 10 µM was less than 30% and the IC50 is 34.5 µM.
Turning to `CCNc1ccc(-c2nn[nH]n2)c(N2CCN(Cc3nc4ccccc4s3)CC2)c1` [Compound A-59, 3-[4-(1,3-benzothi-azol-2-ylmethyl)-piperazin-1-yl]-N-ethyl-4-(2H-tetrazol-5-yl)aniline], the IC50 at human AT2R fused to Cb23 was determined as 4.75 µM. For the same compound, at human AT1R, the inhibition at 1 µM was less than 30% and the inhibition at 10 µM is less than 30%.
Regarding `CC(C)Nc1ccc(-c2nn[nH]n2)c(N2CCN(Cc3nc4ccccc4s3)CC2)c1` [Compound A-60, 3-[4-(1,3-benzothiazol-2-ylmethyl)piperazin-1-yl]-N-isopropyl-4-(2H-tetrazol-5-yl)aniline], the IC50 on human AT2R fused to Cb23 was 3.46 µM. For the same compound, at human AT1R, the inhibition at 1 µM was less than 30% and the inhibition at 10 µM was less than 30%.
Take `c1ccc2sc(CN3CCN(c4cc(NC5CCCC5)ccc4-c4nn[nH]n4)CC3)nc2c1` [Compound A-64, 3-[4-(1,3-benzothi-azol-2-ylmethyl)-piperazin-1-yl]-N-cyclopentyl-4-(2H-tetrazol-5-yl)aniline]: at human AT2R fused to Cb23, the IC50 is 1.56 µM. In addition, at human AT1R, the inhibition at 1 µM is less than 30%, the inhibition at 10 µM was less than 30% and the IC50 is 39.7 µM.
With `c1ccc2sc(CN3CCN(c4cc(N5CCCCC5)ccc4-c4nn[nH]n4)CC3)nc2c1` [Compound A-65, 2-((4-(5-(piperidin-1-yl)-2-(2H-tetrazol-5-yl)phenyl)piperazin-1-yl)methyl) benzo[d]thiazole], at human AT2R fused to Cb23, the IC50 was 1.85 µM. In addition, at human AT1R, the inhibition at 1 µM is less than 30%, the inhibition at 10 µM is less than 30% and the IC50 was 60.8 µM.
As for `c1ccc2sc(CN3CCN(c4cc(N5CCOCC5)ccc4-c4nn[nH]n4)CC3)nc2c1` [Compound A-67, 4-[3-[4-(1,3-benzo-thiazol-2-ylmethyl)-piperazin-1-yl]-4-(2H-tetrazol-5-yl)-phenyl]morpholine], on human AT2R fused to Cb23, the IC50 turned out to be 7.11 µM. Besides, at human AT1R, the inhibition at 1 µM is less than 30% and the inhibition at 10 µM was less than 30%.
As for `COC1CC(Nc2ccc(-c3nn[nH]n3)c(N3CCN(Cc4nc5ccccc5s4)CC3)c2)C1` (stereo not shown) [Compound A-68, 3-[4-(1,3-benzo-thiazol-2-ylmethyl)-piperazin-1-yl]-N-(3-methoxycyclo-butyl)-4-(2H-tetrazol-5-yl)aniline], the IC50 on human AT2R fused to Cb23 is 8.5 µM. Further, on human AT1R, the inhibition at 1 µM was less than 30% and the inhibition at 10 µM is less than 30%.
Regarding `CC(C)Cc1ccc(-c2nn[nH]n2)c(N2CCN(Cc3nc(=O)c4cnn(C)c4[nH]3)CC2)c1` [Compound A-69, 6-[[4-[5-isobutyl-2-(2H-tetrazol-5-yl)-phenyl]piperazin-1-yl]methyl]-1-methyl-7H-pyr-azolo[3,4-d]pyrimi-din-4-one], on human AT2R fused to Cb23, the IC50 worked out at 10.6 µM. On human AT1R, the inhibition at 1 µM was less than 30% and the inhibition at 10 µM was less than 30%.
As to `Cc1ccc2nc(CN3CCN(c4cc(CC(C)C)ccc4-c4nn[nH]n4)CC3)cc(=O)n2c1` [Compound A-70, 2-[[4-[5-isobutyl-2-(2H-tetrazol-5-yl)-phenyl]piperazin-1-yl]methyl]-7-methyl-pyrido[1,2-a]pyrimidin-4-one], the IC50 on human AT2R fused to Cb23 was 1.8 µM. Besides, at human AT1R, the inhibition at 1 µM is less than 30%, the inhibition at 10 µM is less than 30% and the half-inhibitory concentration (IC50) is 61.2 µM.
As to `Cc1ccn2c(=O)cc(CN3CCN(c4cc(CC(C)C)ccc4-c4nn[nH]n4)CC3)nc2c1` [Compound A-72, 2-[[4-[5-isobutyl-2-(2H-tetrazol-5-yl)phenyl]piperazin-1-yl]methyl]-8-methyl-pyrido[1,2-a]pyrimidin-4-one], the IC50 on human AT2R fused to Cb23 was 8.39 µM. At human AT1R, the inhibition at 1 µM was less than 30% and the inhibition at 10 µM was less than 30%.
On to `Cc1cccc2nc(CN3CCN(c4cc(CC(C)C)ccc4-c4nn[nH]n4)CC3)cc(=O)n12` [Compound A-73, 2-[[4-[5-isobutyl-2-(2H-tetrazol-5-yl)-phenyl]piperazin-1-yl]methyl]-6-methyl-pyrido[1,2-a]pyrimidin-4-one-], for which the IC50 on human AT2R fused to Cb23 was found to be 4.3 µM. In addition, at human AT1R, the inhibition at 1 µM is less than 30% and the inhibition at 10 µM was less than 30%.
`Cc1csc2nc(CN3CCN(c4cc(CC(C)C)ccc4-c4nn[nH]n4)CC3)cc(=O)n12` [Compound A-75, 7-[[4-[5-isobutyl-2-(2H-tetrazol-5-yl)phenyl]piperazin-1-yl]methyl]-3-methyl-thiazolo[3,2-a]pyrimidin-5-one]: the IC50 on human AT2R fused to Cb23 was 5.92 µM. On human AT1R, the inhibition at 1 µM was less than 30% and the inhibition at 10 µM was less than 30%.
